Reference: patent US4844897A, “Anti-tumor protease preparations” (Maeda; Hiroshi, priority 1985, dated 1989)

B1: Papain: protease of plant origin (protein, UniProt P00784 134-345, looked up)
Papain: IPEYVDWRQKGAVTPVKNQGSCGSCWAFSAVVTIEGIIKIRTGNLNEYSEQELLDCDRRSYGCNGGYPWSALQLVAQYGIHYRNTYPYEGVQRYCRSREKGPYAAKTDGVRQVQPYNEGALLYSIANQPVSVVLEAAGKDFQLYRGGIFVGPCGNKVDHAVAAVGYGPNYILIKNSWGTGWGENGYIRIKRGTGNSYGVCGLYTSSFYPVKN

Legend:
[1] = system: African green monkey kidney (Epithelial cells); assay: Toxicity of various proteases against cultured cells, serum-free; type: cell-based; settings: normal, absence of serum, 24-hour treatment
Description: (§1) Cell toxicity of various proteases against cultured cells and influences of serum on the cell toxicity:
(§2) The present inventors have investigated cell-killing effects of various proteases by adding the proteases to various cultured cells, and also at the same time the effect of serum on the cytotoxicity.
(§3) After 24 hours, the cells in the Lab Tech chambers were allowed to culture under three different condition. In group A, they were replaced in RPMI medium with 10% fetal calf serum containing different concentrations of test protease. In group B, the same medium with appropriate protease was used but devoid of serum; In group C, a control medium was used with 10% serum but without protease. One hour and 24 hours after the culturing cytotoxicity, observed microscopically, was determined by counting the number of cells and by morphological investigation.

[2] = system: Burkitt's lymphoma (Raji); assay: as above; type: cell-based; settings: absence of serum, 24-hour treatment
Description: as §1, §2, §3

[3] = system: Cervical canal cancer (HeLa); assay: as above; type: cell-based; settings: absence of serum, 24-hour treatment
Description: as §1, §2, §3

[4] = system: Human fetus lung fibroblast (HEL); assay: as above; type: cell-based; settings: normal cell, absence of serum, 24-hour treatment
Description: as §1, §2, §3

[5] = system: Human fibroblast (WISH); assay: as above; type: cell-based; settings: normal cell, absence of serum, 24-hour treatment
Description: as §1, §2, §3

[6] = system: Human laryngeal carcinoma (HEp-2); assay: as above; type: cell-based; settings: absence of serum, 24-hour treatment
Description: as §1, §2, §3

[7] = system: Human normal T-lymphocytes; assay: as above; type: cell-based; settings: absence of serum, 24-hour treatment
Description: as §1, §2, §3

[8] = system: Human submaxillary gland tumor (HSG); assay: as above; type: cell-based; settings: absence of serum, 24-hour treatment
Description: as §1, §2, §3

[9] = system: Monkey kidney fibroblast (Vero); assay: as above; type: cell-based; settings: normal cell, absence of serum, 24-hour treatment
Description: as §1, §2, §3

[10] = system: Mouse leukemia (RL.male. 1); assay: as above; type: cell-based; settings: absence of serum, 24-hour treatment
Description: as §1, §2, §3

[11] = system: Rat hepatocytes (Liver cells); assay: as above; type: cell-based; settings: normal, absence of serum, 24-hour treatment
Description: as §1, §2, §3

[12] = system: Rat neuroblastoma (C6); assay: as above; type: cell-based; settings: absence of serum, 24-hour treatment
Description: as §1, §2, §3

[13] = system: HSG; assay: Cytotoxicity induced by protease activity in the presence of serum; type: cell-based, human
Description: as §1, §2, §3

[14] = system: HeP2; assay: as above; type: cell-based, human
Description: as §1, §2, §3

[15] = system: WISH; assay: as above; type: cell-based, human
Description: as §1, §2, §3

[16] = system: HeLa; assay: as above; type: cell-based
Description: as §1, §2, §3

[17] = system: C6; assay: as above; type: cell-based, rat
Description: as §1, §2, §3

[18] = system: Vero; assay: as above; type: cell-based, monkey
Description: as §1, §2, §3

[19] = system: HEL; assay: as above; type: cell-based, human
Description: as §1, §2
as §3, with “A 0.5 ml aliquot of RPMI-1640 medium or Eagle's NEM medium containing 10% bovine fetal calf serum was placed in a Lab Tech plastic chamber of 8-well type, (Falcon Inc.), and suspensions of various tumor cells, each containing about 1×10^4 cells in 0.5 ml, were added thereto and cultured in an incubator at 37° C. in 5% CO2 (95% being air). After” for “After”
(§4) (b) Numerals show reciprocal number of dilution for obtaining the
(§5) equivalent effect after 24hour treatment on the basis of the effect of th […]

[20] = system: GMK; assay: as above; type: cell-based, African green monkey
Description: as §1, §2
as §3, with “A 0.5 ml aliquot of RPMI-1640 medium or Eagle's NEM medium containing 10% bovine fetal calf serum was placed in a Lab Tech plastic chamber of 8-well type, (Falcon Inc.), and suspensions of various tumor cells, each containing about 1×10^4 cells in 0.5 ml, were added thereto and cultured in an incubator at 37° C. in 5% CO2 (95% being air). After” for “After”
as §4, §5

[21] = system: tumor cell; assay: Effect of serum on tumor cell toxicity with time; type: cell-based; settings: presence of serum; 24-hour vs one-hour treatment
Description: as §1, §2, §3

[22] = system: Meth A tumor; assay: Effectiveness on mouse solid tumor (methylcholanthrene-induced Meth A tumor); type: in vivo, Balb/C mouse; settings: injected into solid tumors, 0.1 ml, two administrations (once for each day); FIG. 3
Description: Anti-tumor actions of various proteases: Effectiveness on mouse solid tumor (i.e., effect on methylcholanthrene-induced tumor (Meth A tumor):
The diameters of the tumors after two administrations (once for each day) were measured.

[23] = system: tumors; assay: Anti-tumor action of proteases (general statement); type: in vivo
[24] = system: α1 anti-trypsin, α2 antichymotrypsin, α2 macroglobulin, etc.; assay: Inhibition of protease activity by protease-inhibiting substances in vivo

Row | Molecule | Minimum effective concentration [1] [µg/mL] | Minimum effective concentration [2] [µg/mL] | Minimum effective concentration [3] [µg/mL] | Minimum effective concentration [4] [µg/mL] | Minimum effective concentration [5] [µg/mL] | Minimum effective concentration [6] [µg/mL] | Minimum effective concentration [7] [µg/mL] | Minimum effective concentration [8] [µg/mL] | Minimum effective concentration [9] [µg/mL] | Minimum effective concentration [10] [µg/mL] | Minimum effective concentration [11] [µg/mL] | Minimum effective concentration [12] [µg/mL] | Cytotoxicity in the presence of serum with time (reciprocal number of dilution for equivalent effect after 24-hour vs one-hour treatment) [13] | Cytotoxicity in the presence of serum with time (reciprocal number of dilution for equivalent effect after 24-hour vs one-hour treatment) [14] | Cytotoxicity in the presence of serum with time (reciprocal number of dilution for equivalent effect after 24-hour vs one-hour treatment) [15] | Cytotoxicity in the presence of serum with time (reciprocal number of dilution for equivalent effect after 24-hour vs one-hour treatment) [16] | Cytotoxicity in the presence of serum with time (reciprocal number of dilution for equivalent effect after 24-hour vs one-hour treatment) [17] | action against tumor propagation (Meth A solid tumor) [22] | anti-tumor action / effect on propagation of tumors [23] | inhibition of activity by protease-inhibiting substances in vivo [24] | also measured
1 | Trypsin | 0.39 | 0.05 | 0.78 | 0.20 | 1.56 | 1.56 | 0.39 | 0.39 | 1.56 | 0.78 | > 5.0 | 1.56 | 2-4 | 0-4 | 4 | 2-4 | 2 | no substantial action against the tumor propagation | no anti-tumor action | completely inhibited | Cytotoxicity in the presence of serum with time (reciprocal number of dilution for equivalent effect after 24-hour vs one-hour treatment) [18]: 2-4; Cytotoxicity in the presence of serum with time (reciprocal number of dilution for equivalent effect after 24-hour vs one-hour treatment) [19]: 2; Cytotoxicity in the presence of serum with time (reciprocal number of dilution for equivalent effect after 24-hour vs one-hour treatment) [20]: 2; cytotoxic effects in 24-hour treatment than one-hour treatment [21]: no substantial enhancement
2 | chymotrypsin | – | – | – | – | – | – | – | – | – | – | – | – | – | – | – | – | – | – | no anti-tumor action | completely inhibited | –
3 | pepsin | – | – | – | – | – | – | – | – | – | – | – | – | – | – | – | – | – | no substantial action against the tumor propagation | no anti-tumor action | completely inhibited | –
4 | B1 | 0.38 | 0.06 | 0.84 | 0.20 | 1.52 | 1.60 | 0.37 | 0.38 | 1.58 | 0.82 | > 5.0 | 1.60 | 2-4 | 0-4 | 2 | 2-4 | 2 | no substantial action against the tumor propagation | no anti-tumor action | completely inhibited | Cytotoxicity in the presence of serum with time (reciprocal number of dilution for equivalent effect after 24-hour vs one-hour treatment) [18]: 2-4; Cytotoxicity in the presence of serum with time (reciprocal number of dilution for equivalent effect after 24-hour vs one-hour treatment) [19]: 2; Cytotoxicity in the presence of serum with time (reciprocal number of dilution for equivalent effect after 24-hour vs one-hour treatment) [20]: 2; cytotoxic effects in 24-hour treatment than one-hour treatment [21]: no substantial enhancement
